Experimental data: patent US6617315B1, “Therapeutic compounds” (priority 1996, dated 2003)

What was measured:
[1] = tested on: MRC5 cells; assay: Compound cytotoxicity on uninfected MRC5 cell monolayers; format: cell-based, human
Experimental: (§1) HCMV strain AD169 was grown on monolayers of human embryonic lung cells (MRC5 cells) in 96 well plates. After infection of the cells at a ratio of approximately 0.01 infectious virus particals per cell, the compounds to be tested were added to selected wells at six different concentrations, each in triplicate The same concentrations of compound were also applied to wells containing monolayers of uninfected cells in order to assess compound cytotoxicity. The plates were incubated for 5 days, and the minimum cytotoxic dose was estimated from microscopic examination. The IC50 for antiviral effect was estimated from measurements of HCMV DNA in each well by blotting and quantitative specific DNA hybridization, similar to the method of Gadler. (Antimicrob. Agents Chemother. 1983, 24, 370-374).

[2] = tested on: HCMV strain AD169; assay: Human Cytomegalovirus (HCMV) assay, antiviral effect by HCMV DNA hybridization; format: cell-based; settings: HCMV strain AD169 on MRC5 cell monolayers, 96 well plates, 5 days incubation, HCMV DNA by blotting and quantitative specific DNA hybridization
Experimental: Human Cytomegalovirus (HCMV) Assay
as §1

[3] = Compound cytotoxicity on uninfected MRC5 cell monolayers; format: cell-based, human; settings: uninfected MRC5 cell monolayers (human embryonic lung cells); uninfected human embryonic lung cells (MRC5), 5 days incubation, estimated from microscopic examination; read-out: MRC5 tox CC50
Experimental: as §1

Compound	CC50 [1] [µM]	IC50 [2] [µM]	melting point [°C]	CC50 at 5 days [3] [µM]	IC50 ([2]; Human betaherpesvirus 5, 120 h) [µM]
2-(Isopropylamino)-4,5,6-trichloro-1-(beta-L-erythro-pentofuranosyl)-1H-benzimidazole [Example 58]	20	0.15			
C[C@@H]1O[C@H](n2c(NC3CC3)nc3cc(Cl)c(Cl)cc32)[C@@H](O)[C@H]1O [Example 1, 2-Cyclopropylamino-5,6-dichloro-1-(5-deoxy-beta-L-ribofuranosyl)-1H-benzimidazole]			186 to 187	100	2.1
CC(C)Nc1nc2cc(Cl)c(Cl)cc2n1[C@H]1O[C@@H](C)[C@H](O)[C@@H]1O [Example 3, 2-Isopropylamino-5,6-dichloro-1-(5-deoxy-beta-L-ribofuranosyl)-1H-benzimidazole]			103 to 105	30	0.6
C[C@@H]1O[C@H](n2c(Br)nc3cc(Cl)c(Cl)cc32)[C@@H](O)[C@H]1O [Example 4, 2-Bromo-5,6-dichloro-1-(5-deoxy-beta-L-ribofuranosyl)-1H-benzimidazole]			136 to 138		
CC(C)Nc1nc2cc(Cl)c(Cl)cc2n1[C@H]1O[C@@H](CCl)[C@H](O)[C@@H]1O [Example 12, 1-(5-Chloro-5-deoxy-beta-L-ribofuranosyl)-5,6-dichloro-2-isopropylamino-1H-benzimidazole]			95 to 97	30	1.4
CC(C)(C)Nc1nc2cc(Cl)c(Cl)cc2n1[C@H]1O[C@@H](CCl)[C@H](O)[C@@H]1O [Example 14, 2-tert-Butylamino-1-(5-Chloro-5-deoxy-beta-L-ribofuranosyl)-5,6-dichloro-1H-benzimidazole]			112 to 114	30	1
CC(C)Nc1nc2cc(Cl)c(Cl)cc2n1[C@H]1O[C@@H](CO)C[C@@H]1O [Example 16, 5,6-Dichloro-1-(3-deoxy-beta-L-ribofuranosyl)-2-isopropylamino-1H-benzimidazole]			153 to 155	100	0.2
CC(C)Nc1nc2cc(Cl)c(Cl)cc2n1[C@@H]1C[C@@H](O)[C@H](CO)O1 [Example 19, 5,6-Dichloro-1-(2-deoxy-beta-L-erythro-pentofuranosyl)-2-isopropylamino-1H-benzimidazole]			114 to 115	100	0.1
CC(C)Nc1nc2c(Cl)c(Cl)c(Cl)cc2n1[C@H]1O[C@@H](CO)[C@H](O)[C@@H]1O [Example 31, 2-(Isopropylamino)-4,5,6-trichloro-1-(beta-L-ribofuranosyl)-1H-benzimidazole]			223 to 224		
CC(C)Nc1nc2c(Br)c(Cl)c(Cl)cc2n1[C@H]1O[C@@H](CO)[C@H](O)[C@@H]1O [Example 39, 4-Bromo-5,6-dichloro-2-(isopropylamino)-1-(beta-L-ribofuranosyl)-1H-benzimidazole]			221 to 222		
CC(C)Nc1nc2cc(F)c(F)cc2n1[C@H]1O[C@@H](CO)[C@H](O)[C@@H]1O [Example 46, 5,6-Difluoro-2-(isopropylamino)-1-(beta-L-ribofuranosyl)-1H-benzimidazole]			156 to 158		
CC(C)Nc1nc2c(Cl)cccc2n1[C@H]1O[C@@H](CO)[C@H](O)[C@@H]1O [Example 50, 4-Chloro-2-(isopropylamino)-1-(beta-L-ribofuranosyl)-1H-benzimidazole]			225 to 227		
CC(C)Nc1nc2c(Cl)cc(Cl)cc2n1[C@H]1O[C@@H](CO)[C@H](O)[C@@H]1O [Example 53, 4,6-Dichloro-2-(isopropylamino)-1-(beta-L-ribofuranosyl)-1H-benzimidazole]			212 to 214	100	0.15
